The record followed here is patent US7935708B2, “Dihydropyrazolopyrimidinone derivatives” (MSD K.K., priority 2006, dated 2011).

Each structure is given as a SMILES string. pEC50: −log10 of the molar value.

Experiment [1] has as its system Cdc2 (Cdk1) tyrosine 15 phosphorylation in NCI-H1299 cells. Put plainly: Cdc2 (Cdk1) tyrosine 15-phosphorylation-inhibitory effect in camptothecin-treated NCI-H1299 cells (ELISA). The class given is cell-based. As to conditions: Homo sapiens, camptothecin 200 nM 16 hours, then test compound with nocodazole 8 hours, read-out: Cdc2-Y15 Phosphorylation-Inhibitory Effect (H1299, + camptothecin) (EC50). From the text: (§1) Pharmaceutical Text 2 (Method of Determining Drug Potency in Cells (Cdc2 (Cdk1) Tyrosine 15-Phosphorylation-Inhibitory Effect))
(§2) Fetal bovine serum (FBS) was obtained from Morgate; media RPMI1640 and DMEM were from Invitrogen; camptothecin was from Sigma; gemcitabine was from Nippon Eli Lilly; nocodazole and protease inhibitor cocktail were from Sigma; rabbit anti-Cdc2 antibody and mouse anti-Cdc2 antibody were from Santa Cruz Biotechnology; rabbit anti-tyrosine 15-phosphorylated Cdc2 antibody and horseradish peroxidase-labeled anti-mouse IgG antibody were from Cell Signaling Technology; sure blue reserve TMB peroxidase substrate was from Kirkegaard and Perry Laboratories.
(§3) Human non-small cell lung cancer cells (NCI-H1299) and human colon cancer cells (WiDr) were obtained from American Type Culture Collection (ATCC).
(§4) c) Method of Effect Determination:
In the method of using NCI-H1299 cells, the cells were suspended in RPMI1640 containing 10% FBS, and the cell suspension was applied to a 96-well Nunclondelta-processed plastic plate (bought from Nunc), in an amount of 2000 cells/100 μL/well, in which the cells were incubated overnight in 5% CO2-95% air at 37° C. Camptothecin was dissolved in dimethylsulfoxide (DMSO), and diluted with RPMI1640 containing 10% FBS, and then this was applied to the plate on which the cells had been previously sowed, in an amount of 50 μL/well in such a manner that the final concentration of camptothecin could be 200 nM. Then, the cells were incubated for 16 hours at 37° C. in 5% CO2-95% air. The test compound was stepwise diluted with DMSO, then diluted with 4000 nM nocodazole-containing RPMI1640 containing 10% FBS, and applied to the plate on which the camptothecin-treated cells had been sowed, in an amount of 50 μL/well. The cells were incubated for 8 hours at 37° C. in 5% CO2-95% air, then the medium was removed, and a cytolytic buffer was added to the plate in an amount of 100 μL/well, shaken at 4° C. for 2 hours, then frozen at −80° C., and melted to give a cell solution. Cdc2 and tyrosine 15-phosphorylated Cdc2 in the cell solution were determined through enzyme-linked immunosorbent assay (ELISA), and the ratio of tyrosine 15-phosphorylated Cdc2 to Cdc2 was calculated to obtain the 50% phosphorylation-inhibitory concentration of the test compound to the cells (EC50, nM). The cytolytic buffer used herein is an aqueous solution containing 20 mM Hepes (pH 7.5), 150 mM sodium chloride, 1 mM disodium ethylenediaminetetraacetate, 0.1% polyoxyethylene (10) octylphenyl ether, 1% protease inhibitor cocktail, 1 mM dithiothreitol, 2 mM sodium orthovanadate, 10 mM sodium fluoride and 10 mM glycerol diphosphate. Cdc2 was determined through ELISA as follows: A rabbit anti-Cdc2 antibody solution, which had been diluted 200-fold with 50 mM carbonate-bicarbonate buffer (pH 9.6), was applied to a 96-well maxisorpimmuno plate (bought from Nunc), in an amount of 50 μL/well, and statically kept overnight at 4° C. so as to fix the antibody on the plate. Next, this was washed three times with phosphate-buffered saline (PBS), and 5% bovine serum albumin-containing PBS (5% BSA/PBS) was added thereto in an amount of 300 μL/well, and statically kept at room temperature for 2 hours, and then again washed three times with PBS. A mouse anti-Cdc2 antibody solution that had been diluted 100-fold with 0.05% polyoxyethylene sorbitan monolaurate and 1% BSA-containing Tris-HCl-buffered saline (1% BSA/TBS-T) was added to it in an amount of 50 μL/well, and the cell solution was added thereto in an amount of 5 μL/well and statically kept overnight at 4° C. Next, this was washed three times with 0.05% polyoxyethylene sorbitan monolaurate and 0.1% BSA-containing Tris-HCl-buffered saline (0.1% BSA/TBS-T), and then a horseradish peroxidase-labeled anti-mouse IgG antibody solution that had been diluted 2000-fold with 1% BSA/TBS-T was added thereto in an amount of 70 μL/well, and statically kept at room temperature for 3 hours. […]

Experiment [2] concerns Cdc2 (Cdk1) tyrosine 15 phosphorylation in WiDr cells. Put plainly: Cdc2 (Cdk1) tyrosine 15-phosphorylation-inhibitory effect in gemcitabine-treated WiDr cells (ELISA). As to conditions: Homo sapiens, gemcitabine 100 nM 24 hours, then test compound with nocodazole 8 hours, read-out: Cdc2-Y15 Phosphorylation-Inhibitory Effect (WiDr, + gemcitabine) (EC50). The class given is cell-based.
Text: as §1, §2, §3, §4
In the method of using WiDr cells, the cells were suspended in DMEM containing 10% FBS, and the cell suspension was applied to a 96-well Nunclondelta-processed plastic plate in an amount of 2000 cells/100 μL/well, in which the cells were incubated overnight in 5% CO2-95% air at 37° C. Gemcitabine was dissolved in PBS, and diluted with DMEM containing 10% FBS, and then this was applied to the plate on which the cells had been previously sowed, in an amount of 50 μL/well in such a manner that the final concentration of gemcitabine could be 100 nM. Then, the cells were incubated for 24 hours at 37° C. in 5% CO2-95% air. The test compound was stepwise diluted with DMSO, then diluted with 1200 nM nocodazole-containing DMEM containing 10% FBS, and applied to the plate on which the gemcitabine-treated cells had been sowed, in an amount of 50 μL/well. The cells were incubated for 8 hours at 37° C. in 5% CO2-95% air, then the culture was removed, and a cytolytic buffer was added to the plate in an amount of 100 μL/well, shaken at 4° C. for 2 hours, then frozen at −80° C., and melted to give a cell solution. Cdc2 and tyrosine 15-phosphorylated Cdc2 in the cell solution were determined through ELISA, and the ratio of tyrosine 15-phosphorylated Cdc2 to Cdc2 was calculated to obtain the 50% phosphorylation-inhibitory concentration of the test compound to the cells (EC50, nM). Cdc2 was determined through ELISA as follows: A rabbit anti-Cdc2 antibody solution, which had been diluted 200-fold with 50 mM carbonate-bicarbonate buffer (pH 9.6), was applied to a 96-well maxisorp plastic plate in an amount of 50 μL/well, and statically kept overnight at 4° C. so as to fix the antibody on the plate. Next, this was washed three times with PBS, and 5% BSA/PBS was added thereto in an amount of 300 μL/well, and statically kept at room temperature for 2 hours, and then again washed three times with PBS. A mouse anti-Cdc2 antibody solution that had been diluted 100-fold with 1% BSA/TBS-T was added to it in an amount of 50 μL/well, and the cell solution was added thereto in an amount of 10 μL/well and statically kept overnight at 4° C. Next, this was washed three times with 0.1% BSA/TBS-T, and then a horseradish peroxidase-labeled anti-mouse IgG antibody solution that had been diluted 2000-fold with 1% BSA/TBS-T was added thereto in an amount of 70 μL/well, and statically kept at room temperature for 3 hours. Finally, this was washed five times with 0.1% BSA/TBS-T, then a substrate of sure blue reserve TMB peroxidase was added to it in an amount of 100 μL/well, and left for coloration in a dark place at room temperature for 15 minutes. Then, 1 M hydrochloric acid was added to it in an amount of 100 μL/well to stop the reaction, and this was analyzed through colorimetry. […]
In general terms: ELISA stands for enzyme-linked immunosorbent assay.

In the case of `C=CCn1c(=O)c2cnc(Nc3ccc(N4CCN(C)CC4)cc3)nc2n1-c1cccc(C(=O)N(C)C)c1` [Example 1, 3-(2-allyl-6-{[4-(4-methylpiperazin-1-yl)phenyl]amino}-3-oxo-1,2-dihydro-3H-pyrazolo[3,4-d]pyrimidin-1-yl)-N,N-dimethylbenzamide], the values for the negative logarithm of the EC50 (pEC50) in experiment [1] and in experiment [2] were 6.98 and 6.84, respectively.

`C=CCn1c(=O)c2cnc(Nc3ccc(N4CCN(C)CC4)cc3)nc2n1-c1cccc(CN(C)C)c1` [Example 26, 2-allyl-1-[3-(dimethylaminomethyl)phenyl]-6-{[4-(4-methylpiperazin-1-yl)phenyl]amino}-1,2-dihydro-3H-pyrazolo[3,4-d]pyrimidin-3-one]: the pEC50 in experiment [1] is 6.94. `C=CCn1c(=O)c2cnc(Nc3ccc(N4CCN(C)CC4)cc3)nc2n1-c1cccc(CN(C)S(C)(=O)=O)n1` [Example 99, N-{[6-(2-allyl-6-{[4-(4-methylpiperazin-1-yl)phenyl]amino}-3-oxo-1,2-dihydro-3H-pyrazolo[3,4-d]pyrimidin-1-yl)pyridin-2-yl]methyl}-N-methylmethanesulfonamide]: the negative-log EC50 (pEC50) was 7.07 in experiment [1] and 6.91 in experiment [2]. Regarding `C#CCn1c(=O)c2cnc(Nc3ccc(N4CCN(C)CC4)cc3)nc2n1-c1cccc(C(C)(C)O)n1` [Example 113, 1-[6-(1-hydroxy-1-methylethyl)pyridin-2-yl]-6-{[4-(4-methylpiperazin-1-yl)phenyl]amino}-2-(2-propynyl)-1,2-dihydro-3H-pyrazolo[3,4-d]pyrimidin-3-one], the negative-log EC50 (pEC50) in experiment [2] was 8.10.

For `C=CCn1c(=O)c2cnc(Nc3ccc(N4CCN(C)CC4)c(C)c3)nc2n1-c1cccc(CN(C)C)n1` [Example 52, 2-allyl-1-{6-[(dimethylamino)methyl]pyridin-2-yl}-6-{[3-methyl-4-(4-methylpiperazin-1-yl)phenyl]amino}-1,2-dihydro-3H-pyrazolo[3,4-d]pyrimidin-3-one], the pEC50 in experiment [1] was 7.34. For `C=CCn1c(=O)c2cnc(Nc3ccc(N4CCN(C)CC4)cc3)nc2n1-c1cccc(C(C)(C)O)c1` [Example 19, 2-allyl-1-[3-(1-hydroxy-1-methylethyl)phenyl]-6-{[4-(4-methylpiperazin-1-yl)phenyl]amino}-1,2-dihydro-3H-pyrazolo[3,4-d]pyrimidin-3-one], the negative-log EC50 (pEC50) in experiment [1] is 6.61; in experiment [2], 6.46.

`Cc1cc(Nc2ncc3c(=O)n(Cc4ccccc4)n(-c4ccccc4)c3n2)ccc1N1CCN(C)CC1` [Example 111, 2-benzyl-6-{[3-methyl-4-(4-methylpiperazin-1-yl)phenyl]amino}-1-phenyl-1,2-dihydro-3H-pyrazolo[3,4-d]pyrimidin-3-one]: the negative logarithm of the EC50 (pEC50) in experiment [1] was 7.03. With `C=CCn1c(=O)c2cnc(Nc3ccc(N4CCN(C)CC4)c(C)c3)nc2n1-c1cccc(OCCO)n1` [Example 98, 2-allyl-1-[6-(2-hydroxyethoxy)pyridin-2-yl]-6-{[3-methyl-4-(4-methylpiperazin-1-yl)phenyl]amino}-1,2-dihydro-3H-pyrazolo[3,4-d]pyrimidin-3-one], the figures for the pEC50 in experiment [1] and in experiment [2] were 7.08 and 7.41, respectively. As for `C=CCn1c(=O)c2cnc(Nc3ccc(N4CCN(C)CC4)c(CO)c3)nc2n1-c1ccccn1` [Example 29, 2-allyl-6-{[3-hydroxymethyl-4-(4-methylpiperazin-1-yl)phenyl]amino}-1-pyridin-2-yl-1,2-dihydro-3H-pyrazolo[3,4-d]pyrimidin-3-one], in experiment [1], the pEC50 was 6.73.

By pEC50 is commonly meant the EC50 on a negative log10 scale, so that one unit is a factor of ten.
